Measurements reported in patent US12084411B2, “Hinokitiol analogues, methods of preparing and pharmaceutical compositions thereof” (The Board of Trustees of the University of Illinois, priority 2018, dated 2024).
Marks after values point to notes of the source that are not given here.

Columns and labels:
[1] = WST-8 toxicity in J774 cells; assay type: cell-based, mouse; settings: mouse, wild type J774 cells; Wild Type J774, WST-8 assay after ≥24 hours of incubation
Method: (§1) Determination of small molecule-mediated toxicity in Caco-2, MEL, and/or J774 cells was performed according to manufacturer instructions using a WST-8 kit (Cayman Chemical 10010199) similar to previously reported (76) using a 1000× stock of the indicated small molecule in DMSO to give the indicated final concentration.

J774 = experiment: WST-8 toxicity in J774 cells; assay type: cell-based, mouse; settings: J774 macrophages
Method: as §1

[2] = system: mice injected with turpentine oil (TO); experiment: Acute anemia of inflammation model, turpentine oil injection; assay type: in vivo; settings: once daily for 3 days, 16 h post-injection
Method: FIGS. 27A-27E show hinokitiol efficacy in a model of acute anemia of inflammation (Al). Mice (male; C57BL/6; 7-week-old; n=8-10) were administered turpentine oil (TO) (5 mL/kg) or saline, and euthanized 3, 6, 12, 16, 24 h post injection. (A) Hepcidin mRNA measured by qPCR. (B) Proteins quantified by Western blot analysis. (C) Tissue and serum non-heme iron measured by bathophenanthroline colorimetric assay. (D) Hematocrit measured by centrifugation of heparinized capillaries. (E) Mice given compounds indicated once daily for 3 days. On the third day, mice injected with saline or TO, and euthanized 16 h post-injection.
Injection of turpentine oil (TO) is a common method to induce inflammation in mice. […] As a result, iron buildup occurred in the duodenum and spleen. Moreover, serum iron decreased (FIG. 27C) without affecting hematocrit values (FIG. 27D).

[3] = Determination of the pKa of hinokitiol; assay type: physicochemical; settings: 0.1 M KCl solution in water, spectrophotometric titration
Method: The pKa of hinokitiol was determined by spectrophotometric titration with varying pH. Hinokitiol (100 μM) was dissolved in a 0.1 M KCl solution in H2O and acidified to pH=3.0 (using 0.1 M HCl). The UV-Vis spectrum was repeatedly obtained upon sequential titration of 0.1 M KOH to obtain a range of pHs (3.0, 3.4, 3.9, 4.2, 4.6, 4.9, 6.0, 6.4, 7.0, 7.2, 7.6, 8.4, 9.3, 9.7, 10.4, 10.9, 11.7, 12.0).

[4] = system: FPN1-deficient Caco-2 monolayers; experiment: 55Fe uptake and transport in FPN1-deficient Caco-2 monolayers; assay type: cell-based, Human; settings: 1 μM
Method: To knockdown FPN1 levels in wild type Caco-2 cells, the differentiated epithelial monolayers were incubated with 150 μM quercetin (Sigma 337951) for 18 hours in Caco-2 Complete media containing G418 similar to previously described (40). To knockdown FPN1 levels in shControl and shDMT1 Caco-2 monolayers, incubation was performed as above except with 250 μM quercetin. After completion of the incubation, the apical and basolateral fluid was aspirated and rinsed with PBS before ^55Fe transport and uptake were determined as described above.

[5] = Iron (III) binding affinity, EDTA or citrate competition assay; settings: for KA for iron (III): EDTA competition (citrate for maltol), pH 7.0
Method: Specifically, the association constant for iron (II) was determined by a ferrozine competition assay (KA of ferrozine=3.65×10^15) (60). FeCl2 (25 μM) was pre-mixed with ferrozine (75 μM) in a 25 mM MES/Tris buffer at pH=7.0 containing 62.5 mM sodium ascorbate. Then increasing concentrations of small molecule (from 40X stocks in DMSO) were added to the indicated final concentrations. The solutions were allowed to equilibrate for 24 hours before reading of the absorbance at 562 nm. […] The system was allowed to equilibrate overnight, and the absorbance corresponding to the Fe(chelator)3 complex was determined. The EC50 values for each chelator were calculated by a nonlinear curve fit (Hill1) on OriginPro by plotting the absorbance vs. concentration of titrant, and the KA for each complex was determined from the equation: KA, ligand=(KA, competitor*[EC50])/[ligand] where the ligand is the molecule originally bound to iron, and the competitor is the competing chelator.

[6] = Exchangeability of ferric iron bound to hinokitiol; assay type: physicochemical
Method: The reversible exchange of ferric iron bound to hinokitiol was determined similar to previously described (69). […] The solution was equilibrated for 1 hour at 37° C., and then an equal amount of ^55FeCl3 (100 nM) was added. The solution was incubated at 37° C., and at the indicated time points an aliquot was taken and added to water. The iron-hinokitiol complex was immediately separated from unbound iron through extraction with ethyl acetate and the radioactive counts were determined by scintillation counting.

wild type (+/+) mice = experiment: 59Fe gut absorption in wild type mice; assay type: in vivo; settings: 1.5 mg/kg, after one hour
Method: Temporal live cell imaging of labile iron levels in shDMT1 Caco-2 monolayers was performed after staining of Caco-2 monolayers with calcein green-AM (5 μM) in the apical and basolateral liquid for 30 minutes in pH=7.4 DMEM. […] Final volume administered was 1.5 mL/kg for each mouse, correcting for individual body weight. […] […] Radioactivity was quantified by gamma counting and calculated as the percentage of gavaged dose (±SEM). Experiments were performed with 4 genotyped-matched mice/day; preliminary analysis determined there were no gender effects on uptake of ^59Fe after intragastric gavage; mixed genders were used in the experiments shown.

[7] = WST-8 toxicity in Caco-2 cells; settings: human
Method: as §1

[8] = system: FPN1-deficient J774 macrophages; experiment: 55Fe release from FPN1-deficient J774 macrophages; assay type: cell-based, mouse; settings: hepcidin-treated cells
Method: To knockdown FPN1 levels in wild type J774 cells, the cells were incubated with […] mouse hepcidin (Peptides International PLP-3773-PI) for 1 hour in J774 Complete media similar to previously described (41) before ^55Fe was loaded into J774 cells and ^55Fe release was determined.
J774 cells were grown in 12-well plates to ˜80% confluency. The cells were then treated with vehicle or hepcidin in fresh J774 Complete media (1 mL) and incubated at 37° C. for 1 hour. After incubation, the media was aspirated, and then a ^55Fe2Tf (50 nM) solution in J774 Complete media (1 mL) containing vehicle or hepcidin was added. The cells were incubated at 37° C. for 10 minutes, and the media was removed. The cells were rinsed with PBS (×2), and then rinsed with J774 Complete media (1 mL) for 10 minutes at 37° C. […] At the indicated times, aliquots (<100 μL) of the media were removed, diluted in scintillation cocktail, and radioactivity was determined by liquid scintillation counting. […] The cell lysate was diluted in scintillation cocktail and intracellular ^55Fe levels were determined by liquid scintillation counting. The % ^55Fe release was determined by the ratio of extracellular ^55Fe to total (intracellular+ extracellular) ^55Fe at the indicated times.

Structure (SMILES): CC(C)c1cccc(=O)c(O)c1 [hinokitiol]
- EC90 [1]: > 100 µM
- observable toxicity (J774): without observable toxicity
- hypoferremia induced by TO injection [2]: mitigated
- pKa [3]: 7.33
- iron uptake [4]: without affecting iron uptake
- monolayer integrity (TEER) [4]: nor disrupting monolayer integrity
- transepithelial iron transport [4]: restored transepithelial iron transport
- KA for iron (III) [5]: 5.8×10^25
- KA for iron (III) ([5]; listed as Hinokitiol): 5.8 × 10^25
- pFe^III ([5]; estimated from known pFe of EDTA (citrate for maltol)): 23.7^†
- time to equilibrium between 55Fe- and 56Fe-hinokitiol complex ([6]; 10 mM Mes/Tris, pH 7.0): within one hour
- exchange of bound 56Fe with 55Fe in solution ([6]; within 10 minutes, pH 7.0, 37° C.): > 20%
- rate of iron absorption (wild type (+/+) mice): statistically significant increase
- EC90 [7]: > 100 µM
- iron release [8]: time- and dose-dependently restored iron release
